Assay results published in paper PMC2074348, “Preclinical in vivo efficacy of two 9-dihydrotaxane analogues against human and murine tumours” (British Journal of Cancer, 1996).
Converted amounts (≈) assume the structure as drawn. Where two headings read alike, the source gives them in different places.

Assays:
ovarian tumours = test system: ovarian tumours; set-up: method as in McGuire et al., 1989; settings: ovarian tumours that had failed cisplatinum therapy; ref McGuire et al., 1989; cited from earlier work
B16F10 = experiment: In vitro tumour cell cytotoxicity, colorimetric MTT assay, 72 h; type: cell-based, murine; settings: Mus musculus, B16-F10, 72 h exposure, read-out: IC50
[1] = test system: human MX-1 xenograft solid tumour; settings: for Delay (1.0 g) (footnote: delay to reach mean tumour mass = 0.5 g, compared with untreated) / Per cent cures (mice with no palpable tumours, day 60) / Per cent toxicity / TWI (per cent tumour weight inhibition when untreated control mean = 0.5 g): q.d., i.p., days 1-5 after inoculation, s.c. xenograft
P388 = experiment: In vitro tumour cell cytotoxicity, colorimetric MTT assay, 72 h; type: cell-based, murine; settings: Mus musculus, 72 h exposure, read-out: IC50
murine M109 solid tumour = experiment: In vivo efficacy vs subcutaneous M109 solid tumour
A549 = experiment: In vitro tumour cell cytotoxicity, colorimetric MTT assay, 72 h; type: cell-based, human; settings: Homo sapiens, 72 h exposure, read-out: IC50
[2] = test system: BDF mice bearing B16F10 ascites tumours; settings: maximum dose yielding <20% lethality following five i.p. doses once daily
HT-29 = experiment: In vitro tumour cell cytotoxicity, colorimetric MTT assay, 72 h; type: cell-based, human; settings: Homo sapiens, 72 h exposure, read-out: IC50
breast tumour = test system: breast tumour; set-up: method as in Holmes et al., 1991; settings: breast tumour patients who had failed one previous course of chemotherapy; ref Holmes et al., 1991; cited from earlier work
in vivo = settings: male, CD-1, mouse, ip, 20 mg/kg
[3] = test system: murine B16F10 melanoma ascites tumour; experiment: In vivo efficacy vs i.p. B16F10 melanoma ascites tumour; settings: for %ILS (group mean increase in lifespan) / MST (mean survival time ± s.d.) / Per cent toxicity (mice with premature death) / Per cent cures (mice alive 60 days after inoculation): q.d., i.p., days 1-5 after inoculation, BDF1 mice
[4] = mouse, in vivo, ip, 20 mg/kg
[5] = dose 6.25 mg kg-1 per day, nude mice
[6] = dose 12.5 mg kg-1 per day, nude mice
[7] = dose 25 mg kg-1 per day, nude mice
[8] = once daily on days 1-5 after inoculation
[9] = dose 6.25 mg kg-1 per day, q.d., i.p., days 1, 5, 9 after inoculation, s.c. tumour, BDF1 mice
[10] = dose 12.5 mg kg-1 per day, q.d., i.p., days 1, 5, 9 after inoculation, s.c. tumour, BDF1 mice
[11] = dose 25 mg kg-1 per day, q.d., i.p., days 1, 5, 9 after inoculation, s.c. tumour, BDF1 mice
[12] = at non-toxic doses, i.p. once daily for 5 consecutive days

CC(=O)O[C@H]1C(=O)[C@@]2(C)[C@H]([C@H](OC(=O)c3ccccc3)[C@]3(O)C[C@H](OC(=O)[C@H](O)[C@@H](NC(=O)c4ccccc4)c4ccccc4)C(C)=C1C3(C)C)[C@]1(OC(C)=O)CO[C@@H]1C[C@@H]2O [Paclitaxel, reference compound]
Response rate (ovarian tumours): 30% | IC50 (B16F10): 4.9 ng/mL (≈ 5.74 nM) | Optimal dose ([1]; administered on days 1-5 after inoculation, nude mice): 12.5 mg kg-1 per dose | Tumour weight inhibition (TWI) when untreated mice had a mean tumour mass of 0.5 g ([1]; analogues optimally, paclitaxel at non-toxic doses): 80% | Delay (1.0 g) (footnote: delay to reach mean tumour mass = 0.5 g, compared with untreated) [1, 5]: 1.4 days | Per cent cures (mice with no palpable tumours, day 60) [1, 5]: 0% | Per cent toxicity [1, 5]: 0% | TWI (per cent tumour weight inhibition when untreated control mean = 0.5 g) [1, 5]: 42% | Delay (1.0 g) (footnote: delay to reach mean tumour mass = 0.5 g, compared with untreated) [1, 6]: 13.4 days | Per cent cures (mice with no palpable tumours, day 60) [1, 6]: 10% | Per cent toxicity [1, 6]: 0% | TWI (per cent tumour weight inhibition when untreated control mean = 0.5 g) [1, 6]: 80% | Delay (1.0 g) (footnote: delay to reach mean tumour mass = 0.5 g, compared with untreated) [1, 7]: 19.1 days | Per cent cures (mice with no palpable tumours, day 60) [1, 7]: 30% | Per cent toxicity [1, 7]: 40% | TWI (per cent tumour weight inhibition when untreated control mean = 0.5 g) [1, 7]: 100% | Cure rate [1, 8]: 10% | Delay in tumour growth compared with untreated controls [1, 8]: 13.4 days | IC50 (P388): 9.9 ng/mL (≈ 11.6 nM) | Tumour weight inhibition (TWI) when untreated mice had a mean tumour mass of 1 g (murine M109 solid tumour): 47% | Delay (1.0 g): delay to reach mean tumour mass = 1.0 g, compared with untreated (murine M109 solid tumour; [9]): 0.4 days | Per cent cures (mice with no palpable tumours, day 60) (murine M109 solid tumour; [9]): 0% | Per cent toxicity (murine M109 solid tumour; [9]): 0% | TWI (per cent tumour weight inhibition when untreated control mean = 1.0 g) (murine M109 solid tumour; [9]): 22% | Days (1.0 g): days to reach mean tumour mass = 1.0 g ± s.d. (murine M109 solid tumour; [10]): 12.6+ 1.0 days | Delay (1.0 g): delay to reach mean tumour mass = 1.0 g, compared with untreated (murine M109 solid tumour; [10]): 0.6 days | Per cent cures (mice with no palpable tumours, day 60) (murine M109 solid tumour; [10]): 0% | Per cent toxicity (murine M109 solid tumour; [10]): 0% | TWI (per cent tumour weight inhibition when untreated control mean = 1.0 g) (murine M109 solid tumour; [10]): 40% | Delay (1.0 g): delay to reach mean tumour mass = 1.0 g, compared with untreated (murine M109 solid tumour; [11]): 0.9 days | Per cent cures (mice with no palpable tumours, day 60) (murine M109 solid tumour; [11]): 0% | Per cent toxicity (murine M109 solid tumour; [11]): 30% | TWI (per cent tumour weight inhibition when untreated control mean = 1.0 g) (murine M109 solid tumour; [11]): 47% | Delay in solid tumour growth to 1 g (murine M109 solid tumour; paclitaxel at a non-toxic dose): 0.6 days | IC50 (A549): 3.4 ng/mL (≈ 3.98 nM) | MTD (q.d. days 1-5) [2]: 25 mg kg-1 per day | IC50 (HT-29): 2.7 ng/mL (≈ 3.16 nM) | Response rate (breast tumour): 48% | Tmax (in vivo): 1.5 h | half-life (in vivo): 2.9 h | Cure rate at optimal non-toxic dose [3, 12]: 0% | Optimal increase in life span (ILS) [3, 12]: 96% | %ILS (group mean increase in lifespan) ([3]; dose 6.25 mg kg-1 per day): 34% | MST (mean survival time ± s.d.) ([3]; dose 6.25 mg kg-1 per day): 26.4 ± 3.4 days | Per cent toxicity (mice with premature death) ([3]; dose 6.25 mg kg-1 per day): 0% | %ILS (group mean increase in lifespan) ([3]; dose 12.5 mg kg-1 per day): 34% | Per cent cures (mice alive 60 days after inoculation) ([3]; dose 12.5 mg kg-1 per day): 0% | Per cent toxicity (mice with premature death) ([3]; dose 12.5 mg kg-1 per day): 0% | %ILS (group mean increase in lifespan) ([3]; dose 25 mg kg-1 per day): 96% | MST (mean survival time ± s.d.) ([3]; dose 25 mg kg-1 per day): 38.6 ± 4.8 days | Per cent cures (mice alive 60 days after inoculation) ([3]; dose 25 mg kg-1 per day): 0% | Per cent toxicity (mice with premature death) ([3]; dose 25 mg kg-1 per day): 0% | Optimal dose ([3]; i.p. once daily for 5 consecutive days): 25 mg/kg/day | AUC [4]: 42.53 ig per h ml-1 | AUC value (rounded) [4]: 43 jg h-1 ml-1 | Cmax [4]: 14.13 ig ml-1 | Cmax (rounded) [4]: 14 jg ml-1
